Measured values taken from patent US5360803A, “Composition and method for treating cancer” (Dan Farber Cancer Institute, priority 1992, dated 1994).
Like-named read-outs stand apart in the source and are kept apart here.

Legend:
[1] = tested on: CX-1 cells; assay: selective killing assay, colony number reduced to 50% of control, human colon carcinoma cell line CX-1; assay type: cell-based; conditions: for Selectivity (ratio of IC50 for CV-1 and IC50 for CX-1): CV-1/CX-1; for IC50: Homo sapiens, CX-1, Table III; for IC50 / CX-1 (IC50): human colon carcinoma, 24 hours treatment, colony count after 7 to 10 days; for CX-1 (IC50): Table III;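 for all read-outs here: colonies stained with crystal violet and counted, control cells given medium alone, exposure at 37 °C, normal monkey kidney epithelial CV-1 cells as the non-cancer comparator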
[2] = tested on: human melanoma LOX; assay: survival of nude mice implanted with human melanoma LOX; assay type: in vivo, male athymic Swiss nu/nu mouse (human tumor); conditions: Mus musculus, ip, 24 h, read-out: T/C
Procedure: LOX, a human melanoma cell line, grown subcutaneously in nude mice was excised, trypsinized to yield a single cell suspension using a metal grid with a […] mesh. […] Five million viable trypan blue negative cells made up in 0.1 ml of Dulbecco modified Eagle medium (DMFE) were injected into the peritoneal cavity of a male athymic Swiss nu/nu mouse. The control group and each treatment group consisted of 5 to 10 mice. Treatment was commenced the following day by intraperitoneal injection.
Ten control mice received 0.25 ml of 2% dextrose on these days the treated groups were injected with the compounds of this invention. […] T/C is the ratio, expressed as a percentage of the mean survival age of the treated group to the mean survival age of the untreated control group.

[3] = tested on: CV-1 cells; assay: selective killing assay, colony number reduced to 50% of control, normal monkey kidney epithelial cell line CV-1; assay type: cell-based; conditions: 24 hours treatment; for IC50: Primates
From the text: The control received culture media only.

[4] = tested on: LOX cells; assay: colony assay of Example 1 with human melanoma LOX cell line; assay type: cell-based; conditions: for Selectivity: CV-1/LOX; for IC50: Homo sapiens, LOX, 24 h;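 for all read-outs here: colony formation assay with 24 h exposure at 37 °C, then 7 to 10 days of regrowth, crystal violet staining of colonies, control wells given medium alone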
[5] = tested on: EJ cells; assay: colony assay of Example 1 with human bladder carcinoma EJ cell line; assay type: cell-based; conditions: for Selectivity: CV-1/EJ; for IC50: Homo sapiens, EJ, 24 h;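 for all read-outs here: colony formation assay with 24 h compound exposure at 37 °C, then 7–10 days drug-free regrowth, colonies stained with crystal violet, controls given medium alone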
Procedure: Human colon carcinoma cell line CX-1 or normal monkey kidney epithelial cell line CV-1 was chosen as representatives of cancer cells and normal cells, respectively. […] CX-1 cells (2,000 cells/well) and CV-1 cells (1,000 cells/well) were plated in 24-well plastic culture plates. […] The control received culture media only. Cells were treated with compounds of General Formulas (I) to (V) at 37° C. for 24 hours. After rinsing with fresh culture medium three times, the cells were further incubated at 37° C. for 7 to 10 days. Cell colonies were fixed and stained with 2% crystal violet in 70% ethanol for 10 minutes and rinsed in water. […] The selectivity is defined as the ratio of IC50 for CV-1 and IC50 for CX-1.

[6] = tested on: CRL 1420 cells; assay: colony assay of Example 1 with human pancreatic carcinoma CRL 1420 cell line; assay type: cell-based; conditions: for Selectivity: CV-1/CRL-1420;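 for all read-outs here: colony formation assay, cells exposed for 24 h then regrown 7 to 10 days without compound, colonies stained with crystal violet, control given medium alone, normal reference CV-1 monkey kidney epithelial cells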
[7] = CV-1, Table III, normal monkey kidney epithelial cells, colony count after 7 to 10 days
[8] = Table V, human melanoma, 24 hours treatment
[9] = 5 mg/kg i.p. on day 1, 4, 8, 11
[10] = Table IV, human bladder carcinoma, 24 hours treatment
[11] = Table III, normal monkey kidney epithelial cells, colony count after 7 to 10 days

C=CCn1c(=Cc2oc3ccccc3[n+]2CC)sc(=C2Sc3ccccc3N2C)c1=O [Compound 3] was tested, and the “Selectivity (ratio of IC50 for CV-1 and IC50 for CX-1)” value [1] was 200, the IC50 [1] was 0.03 µg/mL and the response vs control in vivo at 5 mg/kg ([2]; 5 mg/kg i.p. on day 1, 4, 8, 11, 14, 16) was 218%. For the same molecule, the IC50 [3, 7] was 6 µg/mL.
CCn1c(=Cc2oc3ccccc3[n+]2C)oc(=C2Sc3ccccc3N2C)c1=O [Compound 11] was tested, and the “Selectivity (ratio of IC50 for CV-1 and IC50 for CX-1)” value [1] was over 667, the IC50 [1] was 0.03 µg/mL and the Selectivity [4] was over 300. The IC50 [4, 8] was under 0.1 µg/mL, the response vs control in vivo at 5 mg/kg [2, 9] was 132% and the IC50 ([3]; CV-1, 24 h, Table IV) was over 20 µg/mL. The IC50 ([3]; CV-1, 24 h, Table V) was over 30 µg/mL, the IC50 [3, 7] was over 20 µg/mL and the Selectivity [5] was over 400. For the same molecule, the IC50 [5, 10] was 0.05 µg/mL.
For CCn1c(=Cc2oc3ccccc3[n+]2C)sc(=C2Sc3ccccc3N2C)c1=O [Compound 12], the “Selectivity (ratio of IC50 for CV-1 and IC50 for CX-1)” value [1] was over 667, the “CX-1 (IC50)” value [1] was 0.03 µg/mL and the Selectivity [4] was over 300. The “LOX(IC50)” value [4, 8] was under 0.1 µg/mL, the “CV-1 (IC50)” value [3, 11] was over 20 µg/mL and the “CV-1 (IC50)” value ([3]; Table IV) was over 20 µg/mL. The “CV-1 (IC50)” value ([3]; Table V) was over 30 µg/mL, the “CV-1 (IC50)” value ([3]; Table VII) was 20 µg/mL and the Selectivity [6] was 222. The “CRL-1420(IC50)” value ([6]; Table VII, human pancreatic carcinoma, 24 hours treatment) was 0.09 µg/mL, the Selectivity [5] was over 400 and the “EJ (IC50)” value [5, 10] was 0.05 µg/mL.
For CCn1c(=Cc2oc3cc4ccccc4cc3[n+]2CC)sc(=C2Sc3ccccc3N2C)c1=O [Compound 22], the “Selectivity (ratio of IC50 for CV-1 and IC50 for CX-1)” value [1] was 1000, the IC50 [1] was 0.01 µg/mL and the Selectivity [4] was 100. It also gave an IC50 [4, 8] of 0.1 µg/mL, a response vs control in vivo at 5 mg/kg [2, 9] of 179% and an IC50 ([3]; CV-1, 24 h, Table IV) of 20 µg/mL. For the same molecule, the IC50 ([3]; CV-1, 24 h, Table V) was 10 µg/mL, the IC50 [3, 7] was 10 µg/mL and the Selectivity [5] was 100. It also gave an IC50 [5, 10] of 0.2 µg/mL.
CCn1c(=Cc2sc3ccc4ccccc4c3[n+]2CC)sc(=C2Sc3ccccc3N2C)c1=O [Compound 30] was tested, and the IC50 [1] was 0.01 µg/mL, the response vs control in vivo at 2.5 mg/kg ([2]; 2.5 mg/kg i.p. on day 1, 4, 6, 8) was 171% and the IC50 [3, 7] was 2 µg/mL.
For CCn1c(=Cc2sc3ccccc3[n+]2CC)sc(=C2Sc3ccc(C)cc3N2C)c1=O [Compound 50], the “Selectivity (ratio of IC50 for CV-1 and IC50 for CX-1)” value [1] was 200, the IC50 [1] was 0.04 µg/mL and the response vs control in vivo at 5 mg/kg ([2]; 5 mg/kg i.p. on day 1, 2, 3, 6, 9, 10, 13) was 163%. For the same molecule, the IC50 [3, 7] was 8 µg/mL.
CCn1c(=Cc2sc3c4ccccc4ccc3[n+]2CC)sc(=C2Sc3ccc(OC)cc3N2C)c1=O [Compound 53] was tested, and the “Selectivity (ratio of IC50 for CV-1 and IC50 for CX-1)” value [1] was 250, the IC50 [1] was 0.04 µg/mL and the response vs control in vivo at 10 mg/kg ([2]; 10 mg/kg i.p. on day 1, 2, 3, 5, 8, 10, 13) was 150%. It also gave an IC50 [3, 7] of 10 µg/mL.
With CCn1c(=Cc2oc3ccc4ccccc4c3[n+]2CC)sc(=C2Oc3ccc4ccccc4c3N2C)c1=O [Compound 87] the “Selectivity (ratio of IC50 for CV-1 and IC50 for CX-1)” value [1] was 400, the IC50 [1] was 0.05 µg/mL and the response vs control in vivo at 10 mg/kg ([2]; 10 mg/kg i.p. on day 1, 3, 6, 9, 10) was 150%. The IC50 [3, 7] was 20 µg/mL.
CCn1c(=Cc2cc[n+](CC)c3ccccc23)sc(=C2Sc3ccc4ccccc4c3N2C)c1=O [Compound 90] was tested, and the “Selectivity (ratio of IC50 for CV-1 and IC50 for CX-1)” value [1] was 200, the IC50 [1] was 0.04 µg/mL and the response vs control in vivo at 5 mg/kg ([2]; 5 mg/kg i.p. on day 1, 8, 13) was 163%. The IC50 [3, 7] was 8 µg/mL.
CCn1c(=Cc2sc3c4ccccc4ccc3[n+]2CC)sc(=C2Sc3ccc4ccccc4c3N2C)c1=O [Compound 92] was tested, and the “Selectivity (ratio of IC50 for CV-1 and IC50 for CX-1)” value [1] was 500, the “CX-1 (IC50)” value [1] was 0.04 µg/mL and the response vs control in vivo at 2.5 mg/kg ([2]; 2.5 mg/kg i.p. on day 1, 2, 3, 4, 6, 7, 8, 10, 11) was 186%. For the same molecule, the “CV-1 (IC50)” value [3, 11] was 20 µg/mL.
With CCn1c(=Cc2sc3ccc(Cl)cc3[n+]2CC)sc(=C2Sc3ccc4ccccc4c3N2C)c1=O [Compound 94] the “Selectivity (ratio of IC50 for CV-1 and IC50 for CX-1)” value [1] was 400, the IC50 [1] was 0.05 µg/mL and the response vs control in vivo at 10 mg/kg ([2]; 10 mg/kg i.p. on day 1, 3, 6, 8, 10, 13, 15) was 161%. The IC50 [3, 7] was 20 µg/mL.
In the case of CCn1c(=CC2=[N+](CC)CCS2)sc(=C2SC3=C(CCCC3)N2C)c1=O [Compound 211], the response vs control in vivo at 5 mg/kg ([2]; 5 mg/kg i.p. on day 1, 4, 8, 10) is reported as 194%.
In the case of CCn1c(=Cc2sc3c([n+]2CC)-c2ccccc2CC3)sc(=C2Oc3ccc(Cl)cc3N2C)c1=O [Compound 213], the Selectivity [4] is reported as 200, the IC50 [4, 8] is reported as 0.03 µg/mL and the IC50 ([3]; CV-1, 24 h, Table IV) is reported as 6 µg/mL. For the same molecule, the IC50 ([3]; CV-1, 24 h, Table V) was 6 µg/mL, the IC50 ([3]; CV-1, 24 h, Table VII) was 6 µg/mL and the Selectivity [6] was 200. For the same molecule, the IC50 ([6]; Homo sapiens, 24 h, Table VII, human pancreatic carcinoma, 24 hours treatment) was 0.03 µg/mL, the Selectivity [5] was 200 and the IC50 [5, 10] was 0.03 µg/mL.
